This is an account of results in ChEMBL document CHEMBL1201862, “PubChem BioAssay data set” (2004).

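The compound was tested at five concentrations on cells cultured in 96-well plates, with a 48-hour exposure period. GI50: concentration for 50% inhibition of growth.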 Active and inactive are the calls of the source. No stated cut-off is given here; in the data, active = GI50 up to about 1.1 µM and inactive = higher.

Test systems include HOP-18; DMS-273; XF498; M19-MEL; SNB-78; KM-20L2; LXFL 529; DMS-114; RXF 631.
Assay in all cases: NCI anticancer screen, dose series, 48 h

With `CC(C)(C)NNc1c([N+](=O)[O-])cnn(-c2ccccc2)c1=O`, the GI50 in the assay on HOP-18 was 16.7 µM (inactive); in the assay with DMS-273, 3.2 µM (inactive); in the assay with XF498, 2.55 µM (inactive); in the assay on M19-MEL, 2.47 µM (inactive); in the assay with SNB-78, 15.6 µM (inactive); in the assay on KM-20L2, 6.44 µM (inactive). For the same compound, in the assay on LXFL 529, the GI50 is 1.78 µM (inactive).

As for `CC(C)(C)C1CCN(C(=O)c2ccccc2)CC1`, the GI50 in the assay on HOP-18 was 84.1 µM (inactive); in the assay with DMS-273 it was > 100 µM (inactive); with XF498, < 0.01 µM (active); in the assay on M19-MEL, > 100 µM (inactive); in the assay on SNB-78, > 100 µM (inactive); in the assay with KM-20L2, > 100 µM (inactive). Also, the figures for the GI50 with DMS-114 and in the assay with LXFL 529 were 28.8 µM (inactive) and 70 µM (inactive), respectively.

As to `O=C1NC(=O)C(=O)C(c2nc3ccccc3s2)C1=O`, the GI50 in the assay with HOP-18, in the assay with DMS-273, with XF498, in the assay on M19-MEL, with SNB-78 and in the assay with KM-20L2 was > 100 µM (inactive) each time. Besides, the GI50 in the assay with DMS-114 and in the assay on LXFL 529 was > 100 µM (inactive) each time.

Turning to `O=c1[nH]c2cc([N+](=O)[O-])ccc2nc1/C(=N\NO)C(O)c1ccc([N+](=O)[O-])cc1` (centres undefined), the GI50 in the assay on DMS-273 is > 100 µM (inactive); in the assay on XF498, > 100 µM (inactive); in the assay on M19-MEL, > 100 µM (inactive); in the assay on SNB-78, > 100 µM (inactive); in the assay with KM-20L2, 32.2 µM (inactive); with DMS-114, 32.6 µM (inactive). Also, the GI50 in the assay on LXFL 529 and with RXF 631 was > 100 µM (inactive) throughout.

As for `NC(=O)OCC(COc1ccc(Cl)cc1)OC(=O)c1ccccc1Cl` (centres undefined), the GI50 in the assay on HOP-18 was 26.1 µM (inactive); in the assay with DMS-273 it was 20.5 µM (inactive); in the assay on SNB-78 it was 36.1 µM (inactive); in the assay with KM-20L2, 19.3 µM (inactive); with DMS-114, 14.6 µM (inactive); in the assay on LXFL 529, 24.1 µM (inactive). Further, the GI50 with RXF 631 is 20.3 µM (inactive).

With `O=P(NC12CC3CC(CC(C3)C1)C2)(N1CC1)N1CC1`, the GI50 with HOP-18 is > 100 µM (inactive); in the assay with DMS-273, 6.07 µM (inactive); with M19-MEL it was > 100 µM (inactive); with SNB-78 it was > 100 µM (inactive); with KM-20L2, > 100 µM (inactive); in the assay on DMS-114 it was 50.9 µM (inactive). Further, in the assay with LXFL 529, the GI50 was 64.4 µM (inactive).

On to `O=S(=O)(O)c1cc(S(=O)(=O)O)c2cc(/N=N/c3ccc(/N=N/c4ccc(/C=C/c5ccc(/N=[N+](/[O-])c6ccc(/C=C/c7ccc(/N=N/c8ccc(/N=N/c9ccc%10cc(S(=O)(=O)O)cc(S(=O)(=O)O)c%10c9)cc8)cc7S(=O)(=O)O)c(S(=O)(=O)O)c6)cc5S(=O)(=O)O)c(S(=O)(=O)O)c4)cc3)ccc2c1`, for which the GI50 in the assay with DMS-273 was > 55.6 µM (inactive); with XF498, 45.2 µM (inactive); in the assay on M19-MEL it was > 25 µM (inactive); with SNB-78, 53.5 µM (inactive); with KM-20L2, 58.9 µM (inactive); in the assay on DMS-114, > 57.4 µM (inactive).

For the compound `O=C1Nc2cc(F)ccc2C1=O`, the GI50 in the assay on HOP-18, in the assay with DMS-273, with XF498, in the assay on M19-MEL, in the assay on SNB-78 and in the assay with KM-20L2 was > 100 µM (inactive) in each case. Further, the GI50 was 50.8 µM (inactive) in the assay with DMS-114 and > 100 µM (inactive) with LXFL 529.

For the compound `Cc1nc(-n2nc(-c3ccccc3)cc2-c2ccccc2)sc1C(=O)/C=C/c1ccc([N+](=O)[O-])cc1`, the GI50 in the assay on HOP-18 was > 100 µM (inactive); in the assay on DMS-273, 20.8 µM (inactive); in the assay with M19-MEL it was 20.3 µM (inactive); with SNB-78, 61.9 µM (inactive); with KM-20L2 it was 33.7 µM (inactive); in the assay on RXF 631, 23 µM (inactive).

As for `O=C(CC(=O)c1cccc([N+](=O)[O-])c1)C(=O)Nc1nc([N+](=O)[O-])cs1`, the GI50 with HOP-18, in the assay with DMS-273, in the assay with M19-MEL, in the assay on SNB-78, with KM-20L2 and in the assay on DMS-114 was > 100 µM (inactive) in each case. In addition, the figures for the GI50 with LXFL 529 and in the assay on RXF 631 were 60.1 µM (inactive) and > 100 µM (inactive), respectively.

As to `CC(Nc1ccc(S(=O)(=O)NC(=N)N)cc1)c1c2ccccc2nc2ccccc12` (centres undefined), the GI50 is 28.3 µM (inactive) in the assay on DMS-273; 15.8 µM (inactive) in the assay with XF498; 34.4 µM (inactive) with M19-MEL; 31.8 µM (inactive) in the assay with KM-20L2; 31.7 µM (inactive) with DMS-114; 28.8 µM (inactive) with LXFL 529. Moreover, the GI50 in the assay on RXF 631 was 26 µM (inactive).

As to `[O-][S+]1Nc2c(Cl)cc(Cl)c(Cl)c2S1` (centres undefined), the GI50 with HOP-18 is > 100 µM (inactive); in the assay with DMS-273, > 100 µM (inactive); in the assay with M19-MEL it was > 100 µM (inactive); in the assay on SNB-78, > 100 µM (inactive); with KM-20L2 it was > 100 µM (inactive); with DMS-114, 76.2 µM (inactive). Also, the GI50 in the assay with LXFL 529 was > 100 µM (inactive).

On to `O=C(NC(Cc1ccc(Br)cc1)C(=O)O)c1ccc(I)cc1` (centres undefined), for which the GI50 in the assay on HOP-18, in the assay with DMS-273, in the assay on XF498, in the assay on M19-MEL, with SNB-78 and in the assay with KM-20L2 was > 100 µM (inactive) each time. The GI50 with DMS-114 was 70.5 µM (inactive).

Consider `Cc1ccc2oc(=O)cc(CC(=O)O)c2c1`, for which the GI50 was > 100 µM (inactive) in the assay on HOP-18; > 100 µM (inactive) with DMS-273; 24.5 µM (inactive) in the assay on XF498; > 100 µM (inactive) with M19-MEL; > 100 µM (inactive) in the assay on KM-20L2; > 100 µM (inactive) in the assay on LXFL 529. Further, in the assay with RXF 631, the GI50 was > 100 µM (inactive).

Turning to `C1=Cc2nc1c(-c1ccccc1)c1ccc([n-]1)c(-c1ccccc1)c1nc(c(-c3ccccc3)c3ccc([n-]3)c2-c2ccccc2)C=C1.[Zn+2]`, the GI50 in the assay with XF498, with M19-MEL, with SNB-78, in the assay on KM-20L2, with DMS-114 and in the assay with LXFL 529 was > 100 µM (inactive) each time. Moreover, in the assay with RXF 631, the GI50 was > 100 µM (inactive).

With `NC(=O)CCC(Nc1c2ccccc2[n+]([O-])c2ccccc12)C(=O)O` (centres undefined), the GI50 was 16 µM (inactive) in the assay on HOP-18; 65 µM (inactive) in the assay on DMS-273; 77.3 µM (inactive) with M19-MEL; > 100 µM (inactive) in the assay with SNB-78; > 100 µM (inactive) with KM-20L2; 37.1 µM (inactive) with DMS-114. Further, the GI50 in the assay with LXFL 529 was 31 µM (inactive).

As to `O=C(O)CCC1c2[nH]c3ccccc3c2CCN1Cc1ccccc1` (centres undefined), the GI50 with HOP-18, in the assay on DMS-273, in the assay with M19-MEL, with SNB-78, with KM-20L2 and with DMS-114 was > 100 µM (inactive) in each case. The GI50 with LXFL 529 and in the assay with RXF 631 was > 100 µM (inactive) in each case.

Turning to `CC12CCC3(OCCO3)C(OC(=O)c3ccccc3)=C1CCC21OCCO1` (centres undefined), the GI50 with HOP-18, in the assay with DMS-273, with M19-MEL, with SNB-78, in the assay with KM-20L2 and with DMS-114 was > 100 µM (inactive) throughout. Besides, the GI50 in the assay with LXFL 529 and with RXF 631 was > 100 µM (inactive) each time.

On to `O=C(O)CCSC(=O)Nc1ccccc1F`, for which the GI50 in the assay on DMS-273, in the assay on SNB-78, in the assay with KM-20L2, in the assay with DMS-114 and in the assay on LXFL 529 was > 100 µM (inactive) each time.

Regarding `COc1ccc2oc(C(=O)O)c3c2c1CCC3`, the GI50 in the assay on HOP-18, in the assay with DMS-273, in the assay with XF498, in the assay with M19-MEL, in the assay with SNB-78 and with KM-20L2 was > 100 µM (inactive) in each case. The GI50 in the assay with DMS-114 and in the assay with LXFL 529 was > 100 µM (inactive) each time.

Consider `CCCCCCCCC1C(C)c2c([nH]c3ccccc23)C2C(=O)N(c3ccccc3)C(=O)C21` (centres undefined), for which the GI50 in the assay on DMS-273 was 9.75 µM (inactive); in the assay with M19-MEL it was 15.7 µM (inactive); in the assay with SNB-78 it was 9.62 µM (inactive); with KM-20L2, 11.2 µM (inactive); in the assay on DMS-114, 10.6 µM (inactive); in the assay with LXFL 529 it was 16.5 µM (inactive). The GI50 in the assay on RXF 631 was 3.41 µM (inactive).

On to `CC(C)(C)[C@H]1CC[C@@](O)(c2ccccc2)CC1.CC(C)(C)[C@H]1CC[C@](O)(c2ccccc2)CC1`, for which the GI50 with HOP-18 was 37.8 µM (inactive); with DMS-273, 15.3 µM (inactive); in the assay with XF498, < 0.01 µM (active); in the assay on M19-MEL, 19.4 µM (inactive); with SNB-78, 21.8 µM (inactive); with KM-20L2, 16.1 µM (inactive). The GI50 in the assay with DMS-114 and with LXFL 529 was 21.1 µM (inactive) in each case.

Regarding `O=c1/c(=C/c2cccc([N+](=O)[O-])c2)sc2nc3ccccc3n12`, the GI50 in the assay with DMS-273 is > 100 µM (inactive); with XF498 it was > 100 µM (inactive); in the assay on M19-MEL it was > 100 µM (inactive); in the assay on SNB-78 it was > 100 µM (inactive); in the assay with KM-20L2 it was > 10 µM (inactive); with DMS-114 it was > 100 µM (inactive). Further, the GI50 with LXFL 529 is > 100 µM (inactive).

With `Cc1c(C(=O)CC(=O)C(=O)Nc2c(C(C)C)cccc2C(C)C)[n+]([O-])c2ccccc2[n+]1[O-]`, the GI50 in the assay with DMS-273 is 3.4 µM (inactive); in the assay with XF498 it was 3.05 µM (inactive); in the assay with M19-MEL it was 1.99 µM (inactive); in the assay with SNB-78, 12.4 µM (inactive); in the assay on KM-20L2, 4.55 µM (inactive); in the assay with DMS-114 it was 2.59 µM (inactive). Further, the GI50 in the assay on LXFL 529 was 11.1 µM (inactive); in the assay with RXF 631 it was 3.3 µM (inactive).
